Test results taken from US4159328A, “Tetrahydro-1,3,5-thiadiazin-4-one derivative” (Nihon Nohyaku Co., Ltd., priority 1977, dated 1979).
Read-outs that look alike come from different tables or passages of the source.

How the values were obtained:
[1] = tested on: larvae of house mosquito (Culex pipiens pallens Coquillett); experiment: Test Example 6: insecticidal activity to larvae of house mosquito; type: in vivo; conditions: 120 h
In short: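 Twenty first-instar Culex pipiens pallens larvae placed with feed in test composition diluted in deionized water to 10 ppm. Kept at 25 °C, and mortality counted five days after treatment.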

[2] = tested on: cirrus red mite (Panonychus citri McGregor); experiment: Test Example 4: activity to citrus red mite (Rothamstead method); type: in vivo; parameters: concentration or dose not given beside the values; conditions: two days after treatment, 25° C.; 2880 min
Protocol: Activity to cirrus red mite (Panonychus citri McGregor).
Testing method: The test was performed by Rothamstead method. A test composition was sprayed by means of a spray gun over grapefruit leaves infested with citrus red mites. After air-drying the grapefruit was left standing in a constant temperature cabinet at 25° C. Two days after the treatment, the number of survived mites was counted to calculate the mortality.

[3] = tested on: adult rust-red-flour beetle (Tribolium castaneum Herbst); experiment: Test Example 7: insecticidal activity to adult rust-red-flour beetle; type: in vivo
Protocol: Insecticidal activity to adult rust-red-flour beetle (Tribolium castaneum Herbst).
Testing method: Into a 9-cm Petri dish covered on the bottom with a piece of filter paper, was introduced 7 ml of a test composition of 400 ppm concentration. Ten adult rust-red flour beetles were released in the Petri dish and left standing in a constant temperature cabinet at 25° C. After 24 hours, the dead-and-survival was inspected to calculate the mortality.

[4] = tested on: larvae of brown planthopper (Nilaparvata lugens Stahl); experiment: Test Example 1: insecticidal activity against larvae of brown planthopper; type: in vivo; conditions: 120 h, third-instar larvae, 25° C., 5 days after treatment
In short: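 Rice seedlings at 1.5-leaf stage were dipped for 30 s in a 400 ppm test composition, air-dried, and infested with third-instar N. lugens larvae. After holding at 25 °C, mortality was scored 5 or 7 days post-treatment from three replicates.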

[5] = tested on: two-spotted spider mite (Tetranychus urticae Koch); experiment: Test Example 3: activity to two-spotted spider mite; type: in vivo; conditions: 120 h, 1,000 ppm, 5 days after treatment
Excerpt: Activity to two-spotted spider mite (Tetranychus urticae Koch).
Testing method: Two-spotted spider mites were set free on the pot-planted soybean in a greenhouse. On the next day, a test composition of 1,000 ppm concentration was sprayed over the soybean by means of a spray gun. Two days or five days after the treatment, dead-and-survival was inspected to calculate the mortality.

[6] = tested on: larvae of diamond-back moth (Plutilla xylostella Linn'e); experiment: Test Example 10: insecticidal activity against larvae of diamond-back moth; type: in vivo; conditions: 400 ppm, first-instar larvae, three days; 4320 min
Excerpt: Insecticidal activity against larvae of diamond-back moth (Plutilla xylostella Linn'e). Testing method: A test composition of 400 ppm concentration was sprayed over the pot-planted chinese cabbage in a greenhouse by means of a spray gun. After air-drying, the chinese cabbage was infested with 10 first-instar larvae of diamond-back moth and was left standing in the greenhouse. Three days after the treatment, the dead-and-survival was inspected to calculate the mortality (3-replication test).

[7] = tested on: larvae of bug. (Togo hemipterus Scott); experiment: Test Example 9: insecticidal activity against larvae of bug; type: in vivo; conditions: 120 h
Protocol: Insecticidal activity against larvae of bug. (Togo hemipterus Scott).
Test method: Into a glass tube (1.6 cm in internal diameter and 9 cm in length), was added 1 ml of a test composition in 10 ppm concentration just to moisten the absorbent cotton. Five rice seeds and five first-instar larvae were introduced into the glass tube and the tube end was covered with a piece of Japanese paper. The glass tube was kept in a constant temperature cabinet at 25° C. Five days after treatment, the dead-and-survival was inspected to calculate the mortality (3-replication test).

[8] = tested on: larvae of 28-spotted lady beetle (Epilachna vigintioctopunctana Fabricius); experiment: Test Example 8: insecticidal activity against larvae of 28-spotted lady beetle; type: in vivo; conditions: 120 h
Protocol: Insecticidal activity against larvae of 28-spotted lady beetle (Epilachna vigintioctopunctana Fabricius).
Testing method: Leaflets of tomato grown in a greenhouse were dipped in a test composition of 100 ppm concentration for 30 seconds and after that the leaflets were dried by air. In a Petri dish covered on the bottom with a piece of filter paper, were introduced 1 ml of water and three treated tomato leaflets. After having been infested with seven second-instar larvae of 28-spotted lady beetle, the Petri dish was left standing in a constant temperature cabinet at 25° C. Five days after the treatment, the dead-and-survival was inspected to calculate the mortality (2-replication test).

[9] = tested on: larvae of white-backed planthopper (Sogatella furcifera Horvath); experiment: Test Example 2: insecticidal activity against larvae of white-backed planthopper; type: in vivo; conditions: 168 h
In short: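 Rice seedlings at 1.5-leaf stage were dipped 30 s in 400 ppm test composition, air-dried, and infested with five first-instar larvae. Tubes were held at 25°C, and mortality was scored at 7 days from triplicate tests.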

[10] = tested on: larvae of green rice leafhopper (Nephotettix cincticeps Uhler); experiment: Test Example 5: activity against larvae of green rice leafhopper; type: in vivo; conditions: 168 h
In short: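 Rice seedlings at 1.5 leaf age dipped 30 seconds in 400 ppm test composition, air-dried, then infested with five second-instar larvae. Kept at 25° C; mortality scored seven days after treatment, three replicates.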

[11] = tested on: 5th-instar larvae of brown planthopper; experiment: mortality in 7 days after spraying on 5th-instar larvae of brown planthopper; type: in vivo; conditions: Nilaparvata lugens, 168 h; for mortality at 100 ppm: 5th-instar larvae, 7 days
mammalian acute toxicity = conditions: mouse, in vivo, mice, male
Protocol: For example, 2-t-butylimino-3-isopropyl-5-phenyltetrahydro-1,3,5-thiadiazin-4-one (compound No. 145) and 2-t-butylimino-3-isopropyl-5-p-tolyltetrahydro-1,3,5-thiadiazin-4-one (compound No. 318) have LD50 (mice, male) of 10,000 mg/kg or higher. Many other compounds of this invention have LD50 (mice, male) of 5,000 mg/kg or higher.

[12] = 400 ppm, adults, 25° C., 24 hours, read-out: Mortality
[13] = 10 ppm, first-instar larvae, 25° C., five days, read-out: Mortality
[14] = 400 ppm, first-instar larvae, 25° C., seven days after treatment, read-out: Mortality
[15] = 400 ppm, second-instar larvae, 25° C., seven days after treatment, read-out: Mortality

C=CCN1C(=O)N(c2cccc(Cl)c2)CSC1=NC(C)(C)C [Compound 218]
mortality at 10 ppm [1]: 100% | Mortality [2]: 100% | mortality at 400 ppm [3, 12]: 100% | mortality at 400 ppm [4]: 100% | mortality at 1000 ppm [5]: 100%

Cc1cccc(N2CSC(=NC(C)C)N(Cc3ccccc3)C2=O)c1 [Compound 329]
Mortality [6]: 100%

CCCN1C(=O)N(c2ccccc2)CSC1=NC(C)C [Compound 135]
mortality at 10 ppm [1]: 100% | mortality at 10 ppm [7, 13]: 100% | Mortality [2]: 100% | mortality at 100 ppm [8]: 100% | mortality at 400 ppm [4]: 100%

CCc1ccc(N2CSC(=NC(C)(C)C)N(C(C)C)C2=O)cc1 [Compound 333, 2-t-butylimino-3-isopropyl-5-(p-ethylphenyl)-tetrahydro-1,3,5-thiadiazin-4-one]
mortality at 10 ppm [1]: 100% | Mortality [6]: 100% | mortality at 400 ppm [9, 14]: 100% | mortality at 400 ppm [4]: 100% | mortality at 400 ppm [10, 15]: 100%

CN=C1SCN(c2cccc(Cl)c2)C(=O)N1C [Compound 213]
mortality at 10 ppm [1]: 100% | mortality at 400 ppm [3, 12]: 100% | mortality at 400 ppm [4]: 100% | mortality at 1000 ppm [5]: 100%

CC(C)N=C1SCN(c2ccccc2)C(=O)N1C [Compound 118, 2-Isopropylimino-3-methyl-5-phenyl-tetrahydro-1,3,5-thiadiazin-4-one]
mortality at 10 ppm [7, 13]: 100% | Mortality [2]: 100%

CC(C)N1C(=O)N(c2cccc(Cl)c2)CSC1=NC(C)(C)CC(C)(C)C [Compound 222]
mortality at 10 ppm [7, 13]: 100% | mortality at 400 ppm [3, 12]: 100% | mortality at 400 ppm [4]: 100% | mortality at 1000 ppm [5]: 80%

CCCN1C(=O)N(c2cccc(Cl)c2)CSC1=NC(C)(C)C [Compound 232]
Mortality [6]: 70% | mortality at 400 ppm [4]: 70%

CNC(=O)Oc1cccc2ccccc12 [NAC, 1-naphthyl N-methylcarbamate, reference compound]
mortality at 200 ppm ([11]; read-out: mortality in 7 days after spraying): 30%

CCN1C(=O)N(c2ccccc2)CSC1=NC(C)(C)C [Compound 131, 2-t-Butylimino-3-ethyl-5-phenyl-tetrahydro-1,3,5-thiadiazin-4-one]
mortality at 10 ppm [1]: 100% | mortality at 10 ppm [7, 13]: 100% | Mortality [2]: 100% | mortality at 100 ppm [8]: 100% | mortality at 400 ppm [4]: 100% | mortality at 400 ppm [10, 15]: 100%

COCCN1C(=O)N(c2ccc(Cl)cc2)CSC1=NC(C)C [Compound 207]
Mortality [6]: 100%

CC(C)N=C1SCN(c2ccc([N+](=O)[O-])cc2[N+](=O)[O-])C(=O)N1C(C)C [Compound 366]
Mortality [6]: 100%

CC(C)(C)N=C1SCN(c2ccc(Cl)cc2)C(=O)N1C1CCCCC1 [Compound 208]
Mortality [6]: 80%

CCCCN1C(=O)N(c2cccc(Cl)c2)CSC1=NC(C)(C)C [Compound 236]
Mortality [6]: 100% | mortality at 400 ppm [4]: 80%

CCC(C)N=C1SCN(c2cccc(C)c2)C(=O)N1C(C)CC (stereo not drawn) [Compound 327]
mortality at 10 ppm [1]: 90% | Mortality [6]: 100% | mortality at 400 ppm [9, 14]: 100% | mortality at 100 ppm [8]: 100% | mortality at 400 ppm [4]: 100% | mortality at 1000 ppm [5]: 100% | mortality at 400 ppm [10, 15]: 100%

CCN=C1SCN(c2cccc(C)c2)C(=O)N1CC [Compound 324]
Mortality [6]: 100% | mortality at 400 ppm [4]: 100%

CC(C)N1C(=O)N(c2ccccc2)CSC1=NC(C)(C)C [Compound 145, 2-t-Butylimino-3-isopropyl-5-phenyl-tetrahydro-1,3,5-thiadiazin-4-one]
mortality at 10 ppm [1]: 100% | mortality at 10 ppm [7]: 100% | mortality at 400 ppm [9]: 100% | Mortality [2]: 100% | mortality at 100 ppm [11]: 100% | mortality at 100 ppm [8]: 100% | LD50 (mammalian acute toxicity): ≥ 10000 mg/kg | mortality at 400 ppm [10]: 100%

Cc1cccc(N2CSC(=NC(C)(C)C)N(C(C)C)C2=O)c1 [Compound 326]
mortality at 10 ppm [1]: 100% | Mortality [6]: 100% | mortality at 400 ppm [9, 14]: 100% | mortality at 100 ppm [8]: 100% | mortality at 400 ppm [4]: 100% | mortality at 400 ppm [10, 15]: 100%

CCc1ccc(N2CSC(=NC)N(C)C2=O)cc1 [Compound 331, 2-methylimino-3-methyl-5-(p-ethylphenyl)-tetrahydro-1,3,5-thiadiazin-4-one]
Mortality [6]: 100%

Cc1ccc(N2CSC(=NC(C)(C)C)N(C(C)C)C2=O)cc1 [Compound 318, 2-t-Butylimino-3-isopropyl-5-(p-tolyl)-tetrahydro-1,3,5-thiadiazin-4-one]
mortality at 10 ppm [1]: 90% | mortality at 400 ppm [9, 14]: 100% | mortality at 100 ppm [11]: 100% | mortality at 100 ppm [8]: 100% | mortality at 400 ppm [4]: 100% | LD50 (mammalian acute toxicity): ≥ 10000 mg/kg | mortality at 1000 ppm [5]: 100% | mortality at 400 ppm [10, 15]: 100%

CCN1C(=O)N(c2cccc(Cl)c2)CSC1=NC(C)(C)C [Compound 216, 2-t-Butylimino-3-ethyl-5-(m-chlorophenyl)-tetrahydro-1,3,5-thiadiazin-4-one]
mortality at 10 ppm [7, 13]: 100% | mortality at 400 ppm [3, 12]: 100% | mortality at 400 ppm [4]: 100% | mortality at 1000 ppm [5]: 70%

CC(C)CN1C(=O)N(c2cccc(Cl)c2)CSC1=NC(C)(C)C [Compound 223]
mortality at 10 ppm [1]: 100% | mortality at 400 ppm [3, 12]: 100% | mortality at 400 ppm [4]: 100% | mortality at 1000 ppm [5]: 70%

CC(C)N1C(=O)N(c2cccc(Cl)c2)CSC1=NC1CCCCC1 [Compound 230]
Mortality [6]: 100%

CCC(C)N=C1SCN(c2cccc(Cl)c2)C(=O)N1C(C)CC (stereo not drawn) [Compound 224]
mortality at 10 ppm [1]: 100% | mortality at 400 ppm [9, 14]: 100% | mortality at 400 ppm [3, 12]: 100% | mortality at 400 ppm [4]: 100% | mortality at 1000 ppm [5]: 100% | mortality at 400 ppm [10, 15]: 100%

CCC(C)N1C(=O)N(c2ccccc2)CSC1=NC(C)(C)C (stereo not drawn) [Compound 152]
mortality at 10 ppm [1]: 100% | mortality at 10 ppm [7, 13]: 100% | mortality at 400 ppm [9, 14]: 100% | mortality at 100 ppm [8]: 100% | mortality at 400 ppm [4]: 100% | mortality at 400 ppm [10, 15]: 100%

C=CCN1C(=O)N(c2cccc(Cl)c2)CSC1=NCc1ccccc1 [Compound 219]
Mortality [6]: 80% | Mortality [2]: 100% | mortality at 400 ppm ([3]; 24 h): 100% | mortality at 400 ppm [4]: 100% | mortality at 1000 ppm [5]: 70%

C=CCN1C(=O)N(c2cccc(Cl)c2)CSC1=NC(C)C [Compound 217, 2-Isopropylimino-3-allyl-5-(m-chlorophenyl)-tetrahydro-1,3,5-thiadiazin-4-one]
mortality at 10 ppm [7, 13]: 100% | mortality at 400 ppm [3, 12]: 100% | mortality at 400 ppm [4]: 100% | mortality at 1000 ppm [5]: 100%
